Here are results for eight molecules from US7276484B2, “Dipeptide inhibitors of β-secretase” (Elan Pharmaceuticals, Inc., priority 1999, dated 2007).

The target in experiment [1] is T1, Human brain β-Secretase (Homo sapiens, UniProt P56817).
T1 construct: Human brain β-Secretase from concentrated HiQ pool prepared Jul; from tissue; host or cells: human brain
As to the kind of experiment: MBP-C125 enzyme inhibition assay (ELISA detection of β-secretase cleavage of MBP-C125 substrate). In kind it is biochemical. Particulars: pH 4.5, 37° C., 90 minutes, read-out: IC50 Grouping. On the procedure: The inhibitory concentration data was obtained by use of the MBP-C125 assay, which determines the relative inhibition of β-secretase cleavage of an MPB-C125 substrate by the compounds assayed. Human brain β-Secretase from concentrated HiQ pool prepared Jul.
Inhibition data was obtained from an ELISA which uses an anti-MBP capture antibody (on precoated and blocked 96-well high binding plates) followed by incubation with diluted enzyme reaction supernatant, incubation with an anti-SW192 specific biotinylated reporter antibody and incubation with streptavidin/alkaline phosphatase. Detection was effected by a fluorescent substrate signal on cleavage by the phosphatase.
Compounds were diluted in a 1:1 dilution series to a six-point concentration curve (two wells per concentration) which took up one 96-plate row per compound tested.
Each of the test compounds was weighed out into a vial and DMSO was added to make up a 10 mM solution. To obtain a final compound concentration of 200 μM at the high point of a 6-point dilution curve, 100 μL of the 10 mM solution was added to well C1 of a 96-well V-bottom plate. Fifty μL of DMSO was added to odd wells of row C across the plate and 1:1 serial dilutions were made. 10 μL of each dilution was added to each of two wells on row C of a corresponding V-bottom plate to which 190 μL of 52 mM NaOAc/7.9% DMSO, pH 4.5 were pre-added. […] The compound concentration in the final enzyme reaction was thus 50 times less than the starting concentration. The final reaction mixture of 200 μM compound for the highest curve point was in 5% DMSO, 20 mM NaAc, 0.06% TX100, at pH 4.5. The enzyme reaction was started by warming the plates to 37° C. After 90 minutes at 37° C., 200 μL/well cold specimen diluent was added to stop the reaction and 20 μL/well was transferred to a corresponding α-MBP coated ELISA plate, containing 80 μL/well specimen diluent. […] The signal was read on a fluorescent plate reader.
For orientation: An ELISA detects its analyte on a solid surface through an enzyme-linked reagent.

For another experiment, the target named is β-secretase (Homo sapiens, UniProt P56817). As to the kind of experiment: assays with β-secretase (pepstatin remark). The class given is biochemical.
β-secretase, sequence (P56817 46-501): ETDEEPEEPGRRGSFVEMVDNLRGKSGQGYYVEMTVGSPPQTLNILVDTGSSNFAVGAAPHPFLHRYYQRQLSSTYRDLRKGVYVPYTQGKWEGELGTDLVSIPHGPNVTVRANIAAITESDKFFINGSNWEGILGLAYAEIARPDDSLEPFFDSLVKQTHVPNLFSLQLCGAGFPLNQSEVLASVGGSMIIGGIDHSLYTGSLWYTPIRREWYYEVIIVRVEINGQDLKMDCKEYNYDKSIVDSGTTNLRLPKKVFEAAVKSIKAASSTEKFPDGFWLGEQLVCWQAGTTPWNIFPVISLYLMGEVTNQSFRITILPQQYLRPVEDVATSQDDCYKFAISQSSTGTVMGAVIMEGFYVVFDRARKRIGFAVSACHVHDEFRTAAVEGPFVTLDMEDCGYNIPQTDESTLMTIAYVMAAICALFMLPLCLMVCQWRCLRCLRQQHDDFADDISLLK
The target of experiment [2] is Human brain β-Secretase (human, UniProt P56817 46-501, limits assumed). The experiment can be described thus: cell-based or functional assay.
Human brain β-Secretase (human, UniProt P56817 46-501, limits assumed), sequence (P56817 46-501 limits assumed): as the sequence (P56817 46-501) above

Numbered stars: 1 amine (or outer) side, 2 acyl side, 3 side chain; on linkers, the order of the positions; unused ones are H or OH. Square brackets hold non-standard residues; d marks the D form. Ends that are not written are not given here. Peptide text beside a SMILES is read from it. * marks the point of attachment. 3,5‑difluoroPhe/Sta = 3,5-difluorobenzyl statine, O=C(C[C@H](O)[C@H](Cc1cc(F)cc(F)c1)N[*:1])[*:2]; Sta = CC(C)C[C@H](N)[C@@H](O)CC(=O)O; Isovaleryl = CC(C)CC(=O)*

T1 sequence (P56817 46-501): as above

Usually IC50 stands for the concentration that inhibits the measured activity by half. Take “geminal dimethyl glutaric dimethylamide group coupled to the derivatized Sta-Val-Ala-Glu-Phe pentapeptide [Example 32]”: the IC50 on Human brain β-Secretase [1] was in the range of 10 to 99 µM. The same measure, in the same setting: the result for `CCCN(CCC)C(=O)c1cccc(CNC(Cc2cc(F)cc(F)c2)C(O)CC(=O)NC(C(=O)NC2CC(C(=O)O)CC(C(=O)O)C2)C(C)C)c1` (stereo not drawn) [Example 54, 3-N,N-di-n-propyl-carboxamidobenzyl-difluorophenylstatine-Val-1-amino-3,5-cis,cis-cyclohexyldicarboxylic acid] reads below 10 µM.

As to `CC(C)CC(=O)N[C@H](C(=O)N[C@H](C(=O)N[C@@H](CC(C)C)[C@@H](O)CC(=O)N[C@@H](C)C(=O)N[C@@H](CC(C)C)[C@@H](O)CC(=O)O)C(C)C)C(C)C` [pepstatin] (Isovaleryl-VV[Sta]A[Sta]-OH), on β-secretase, the “inhibitory activity in assays with β-secretase” value was “no inhibitory activity”. Regarding `COC(=O)c1cccc(C(=O)N[C@@H](Cc2cc(F)cc(F)c2)[C@@H](O)CC(=O)N[C@H](C(=O)NC2CC(C(=O)O)C[C@H](C(=O)O)C2)C(C)C)c1` (some centres unmarked) [Example 39], at Human brain β-Secretase [1], the 50% inhibitory concentration (IC50) is below 10 µM. Same read-out and setting: with “glutaric acid piperidine amide coupled with the derivatized Sta-Val-Ala-Glu-Phe pentapeptide [Example 33]” the figure was 10 to 99 µM. On the same count and under the same terms, with “4-carboxycinnoline coupled to the 3,5-difluoroPhe/Sta-Val-Ala-Glu-Phe [Example 44]” the figure was 10 to 99 µM; with “2-carboxy-diphenylether coupled with the peptide 3,5-difluoroPhe/Sta-Val-Ala-Glu-Phe [Example 29]”, below 10 µM. As for {2‑carboxy‑diphenylether}-[3,5‑difluoroPhe/Sta]VAEF [Example 29: 2-carboxy-diphenylether coupled with the peptide 3,5-difluoroPhe/Sta-Val-Ala-Glu-Phe], the “IC50 Grouping (MBP-C125 enzyme inhibition assay, ELISA read-out)” value with Human brain β-Secretase [2] is below 10 µM.
